Measurements published in ChEMBL document CHEMBL3045845, “Predicting 3H-1,2,4-triazolinones as angiotensin II receptor antagonists: 2D and 3D QSAR by kNN-molecular field analysis approach” (Med Chem Res, 2012).

Target: T1, Angiotensin II receptor (AT-1) type-1 (Rattus norvegicus, UniProt P29089+P25095)
T1 sequence (P29089 whole entry): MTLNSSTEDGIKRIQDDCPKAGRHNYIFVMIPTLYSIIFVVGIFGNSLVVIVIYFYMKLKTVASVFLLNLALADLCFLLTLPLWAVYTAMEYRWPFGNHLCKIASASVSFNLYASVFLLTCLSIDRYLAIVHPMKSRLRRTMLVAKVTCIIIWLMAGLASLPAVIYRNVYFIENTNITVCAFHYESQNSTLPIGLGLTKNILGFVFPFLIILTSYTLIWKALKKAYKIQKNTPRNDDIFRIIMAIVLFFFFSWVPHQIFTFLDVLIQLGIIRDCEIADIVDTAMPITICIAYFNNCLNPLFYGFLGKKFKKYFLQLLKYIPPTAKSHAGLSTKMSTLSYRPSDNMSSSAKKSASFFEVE
T1 sequence (P25095 whole entry): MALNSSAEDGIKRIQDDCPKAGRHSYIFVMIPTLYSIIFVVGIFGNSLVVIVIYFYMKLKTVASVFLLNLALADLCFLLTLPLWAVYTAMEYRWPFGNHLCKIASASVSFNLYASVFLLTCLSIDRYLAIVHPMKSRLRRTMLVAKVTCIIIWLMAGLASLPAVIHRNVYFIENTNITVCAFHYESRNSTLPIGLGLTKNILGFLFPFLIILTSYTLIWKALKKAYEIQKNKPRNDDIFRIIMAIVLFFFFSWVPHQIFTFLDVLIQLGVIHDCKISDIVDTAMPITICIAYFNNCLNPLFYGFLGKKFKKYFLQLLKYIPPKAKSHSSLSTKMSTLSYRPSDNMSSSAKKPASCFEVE
Experiment: Displacement of [125I]-angiotensin 2 from angiotensin AT1 receptor in Rattus norvegicus (rat) uterine membranes

Row | IC50 [µM] | pIC50 | SMILES
1 | 0.0098 | 8.009 | CCCCc1nn(CCCCCC(=O)OCC)c(=O)n1Cc1ccc(-c2ccccc2-c2nn[nH]n2)cc1
2 | 0.28 | 6.553 | CCCCc1nn(Cc2ccc3ccccc3c2)c(=O)n1Cc1ccc(-c2ccccc2-c2nn[nH]n2)cc1
3 | 0.015 | 7.824 | CCCCc1nn(CCC)c(=O)n1Cc1ccc(-c2ccccc2-c2nn[nH]n2)cc1
4 | 0.17 | 6.77 | CCCCCCCCn1nc(CCCC)n(Cc2ccc(-c3ccccc3-c3nn[nH]n3)cc2)c1=O
5 | 0.18 | 6.745 | CCCCc1nn(CC(OCC(=O)OCC)c2ccccc2)c(=O)n1Cc1ccc(-c2ccccc2-c2nn[nH]n2)cc1 (stereo unspecified)
6 | 0.016 | 7.796 | CCCCc1nn(CC(=O)OC(C)(C)C)c(=O)n1Cc1ccc(-c2ccccc2-c2nn[nH]n2)cc1
7 | 0.018 | 7.745 | CCCCc1nn(CCCc2ccccc2)c(=O)n1Cc1ccc(-c2ccccc2-c2nn[nH]n2)cc1
8 | 0.017 | 7.77 | CCCCc1nn(CCCCCC(=O)O)c(=O)n1Cc1ccc(-c2ccccc2-c2nn[nH]n2)cc1
9 | 0.0056 | 8.252 | CCCCCn1nc(CCCC)n(Cc2ccc(-c3ccccc3-c3nn[nH]n3)cc2)c1=O
10 | 0.009 | 8.046 | CCCCc1nn(CC(=O)OCC)c(=O)n1Cc1ccc(-c2ccccc2-c2nn[nH]n2)cc1
11 | 0.043 | 7.367 | CCCCc1nn(C(C)(C)C(=O)c2ccccc2)c(=O)n1Cc1ccc(-c2ccccc2-c2nn[nH]n2)cc1

The next lines start with the compound.

Row | SMILES | IC50 [µM] | pIC50
12 | CCCCc1nn(C(CC(=O)OCC)C(=O)c2ccccc2)c(=O)n1Cc1ccc(-c2ccccc2-c2nn[nH]n2)cc1 (stereo unspecified) | 0.036 | 7.444
13 | CCCCc1nn(CC(OCc2ccccc2)c2ccccc2)c(=O)n1Cc1ccc(-c2ccccc2-c2nn[nH]n2)cc1 (stereo unspecified) | 0.28 | 6.553
14 | CCCCc1nn(CCC2CCCCC2)c(=O)n1Cc1ccc(-c2ccccc2-c2nn[nH]n2)cc1 | 0.018 | 7.745
15 | CCCCc1nn(Cc2ccccc2)c(=O)n1Cc1ccc(-c2ccccc2-c2nn[nH]n2)cc1 | 0.016 | 7.796
16 | CCCCc1nnc(O)n1Cc1ccc(-c2ccccc2-c2nn[nH]n2)cc1 | 0.042 | 7.377
17 | CCCCc1nn(CC(=O)C23CC4CC(CC(C4)C2)C3)c(=O)n1Cc1ccc(-c2ccccc2-c2nn[nH]n2)cc1 | 0.025 | 7.602
18 | CCCCc1nn(CC(O)c2ccccc2)c(=O)n1Cc1ccc(-c2ccccc2-c2nn[nH]n2)cc1 (stereo unspecified) | 0.0036 | 8.444
19 | CCCCc1nn(CC(OCCC)c2ccccc2)c(=O)n1Cc1ccc(-c2ccccc2-c2nn[nH]n2)cc1 (stereo unspecified) | 0.045 | 7.347
20 | CCCCc1nn(CC(OCC)c2ccccc2)c(=O)n1Cc1ccc(-c2ccccc2-c2nn[nH]n2)cc1 (stereo unspecified) | 0.015 | 7.824
21 | CCCCc1nn(CC(=O)c2cc(OC)ccc2OC)c(=O)n1Cc1ccc(-c2ccccc2-c2nn[nH]n2)cc1 | 0.021 | 7.678
22 | CCCCc1nn(C(C)CC)c(=O)n1Cc1ccc(-c2ccccc2-c2nn[nH]n2)cc1 (stereo unspecified) | 0.01 | 8
23 | CCCCc1nn(CCC(C)CC(C)(C)C)c(=O)n1Cc1ccc(-c2ccccc2-c2nn[nH]n2)cc1 (stereo unspecified) | 0.035 | 7.456
24 | CCCCc1nn(CC(OC)c2ccccc2)c(=O)n1Cc1ccc(-c2ccccc2-c2nn[nH]n2)cc1 (stereo unspecified) | 0.012 | 7.921
25 | CCCCc1nnc(O)n1Cc1ccc(-c2ccccc2C(=O)O)cc1 | 1.5 | 5.824
26 | CCCCc1nn(CCCCC(=O)O)c(=O)n1Cc1ccc(-c2ccccc2-c2nn[nH]n2)cc1 | 0.012 | 7.921
27 | CCCCc1nn(CCc2ccccc2)c(=O)n1Cc1ccc(-c2ccccc2-c2nn[nH]n2)cc1 | 0.0031 | 8.509
28 | CCCCc1nn(CC(=O)O)c(=O)n1Cc1ccc(-c2ccccc2-c2nn[nH]n2)cc1 | 0.091 | 7.041
29 | CCCCc1nn(CC(OCC(=O)O)c2ccccc2)c(=O)n1Cc1ccc(-c2ccccc2-c2nn[nH]n2)cc1 (stereo unspecified) | 0.03 | 7.523
30 | CCCCCCn1nc(CCCC)n(Cc2ccc(-c3ccccc3-c3nn[nH]n3)cc2)c1=O | 0.0087 | 8.06
31 | CCCCc1nn(CC(O)c2cc(OC)ccc2OC)c(=O)n1Cc1ccc(-c2ccccc2-c2nn[nH]n2)cc1 (stereo unspecified) | 0.022 | 7.658
32 | CCCCc1nn(CCCC)c(=O)n1Cc1ccc(-c2ccccc2C(=O)O)cc1 | 0.101 | 6.996
33 | CCCCc1nn(C(Cc2ccccc2)C(=O)c2ccccc2)c(=O)n1Cc1ccc(-c2ccccc2-c2nn[nH]n2)cc1 (stereo unspecified) | 5.8 | 5.237
